Values of other authors in patent US20230211112A1, “Method for emergency relief of acute ischemic attacks” (priority 2020, published 2023).

Test system: rats
Settings: confined space

Compound	oxygen consumption reduced compared to the control (average, vs air environment, same initial oxygen concentration) [%]	maximum survival time increased (vs air environment control) [%]	oxygen consumption decreased (vs air environment control) [times]	time of maximum animal survival increased (vs air environment control) [times]
[Ar] [argon]	27	33	–	–
[Xe] [xenon]	–	–	3.2	3.5
